# Patent publication US20230190750A1, “METHODS OF TREATING AND PREVENTING CANCER DRUG RESISTANCE” (Genentech, Inc., priority 2014, published 2023)
# What was measured:
# Format in all cases: cell-based
# CHL-1 melanoma cells = assay: Single and dual drug treatment, cell growth of CHL-1 melanoma cells; settings: growth observed on days 7, 14, 21, 28, 35
# Procedure: FIG. 11.|A drug screen was performed on CHL-1 melanoma cells. The cells were treated with DMSO (control), GDC-0973 (i.e., cobimetinib), GDC-0032 (PI3K-Alpha Inhibitor), BFJ-398 (pan FGFR inhibitor), GDC-0973 and GDC-0032, or GDC-0973 and BGJ-398.
# Experiments were performed on CHL-1 melanoma cells to determine the effect of single and dual drug treatment on cell growth (FIG. 11). The cells were treated with DMSO (control), GDC-0973, GDC-0032, BGJ398, GDC-0973 and GDC-0032, or GDC-0973 and BGJ398. Cell growth was observed on days 7, 14, 21, 28, and 35, or until the cells had reached near 100% confluency. […] In contrast, cells treated with the combination treatment of GDC-0973 and GDC-0032 or the combination of GDC-0973 and BGJ398 never reached confluency through day 35.
# 624 MEL cells = assay: Reactivation of MAPK and PI3K pathways by secreted growth factors in presence of PLX4032; settings: 5 μM PLX4032 24 hours, 50 ng/mL factor 10 minutes
# Procedure: (§1) FIG. 1A-D.| Factors secreted by tumor cells and/or the tumor microenvironment contribute to drug resistance through activation of cell-surface receptors. […] D, Secreted growth factors which promote resistance to PLX4032 reactivate MAPK and PI3K pathways. Activation of MAPK by FGF2, MAPK and AKT by HGF and AKT by NRG1 and SCF are shown in 624 MEL cells in the presence of PLX4032. Treatments were 5 μM PLX4032 for 24 hours and 50 ng·mL FGF2, HGF, NRGB1, or SCF for 10 minutes.
# melanoma cell line = assay: Secreted factor screen for resistance to B-raf and MEK antagonists in melanoma cell lines
# Procedure: as §1
# [1] = test system: pERK in SK MEL 24 VemR cells; assay: Western blot of treated SK MEL 24 VemR cells; settings: GDC-0973 0.5 μM, BGJ398 1 μM, 24 hours
# Procedure: FIG. 14.|Single resistant SK MEL 24 VemR (SK MEL 24 cells resistant to vemurafenib) were treated with vemurafenib (i.e., PLX4032), BGJ398, and/or cobimetinib (i.e., GDC-0973). The cells were then processed and the presence/absence of FGFR1, pAKT, pMEK, pERK, PARP, pBAD, BIM, and βactin (control) were detected by Western blot. A melanoma cell line was made that is resistant to vemurafenib (“SK MEL 24 VemR”). The SK MEL 24 VemR cells were treated with vemurafenib (PLX4032), BGJ398, GDC-0973, BGJ398 and GDC-0973, vemurafenib and BGJ398, vemurafenib and GDC-0973, or vemurafenib, BGJ398, and GDC-0973. In all treatment conditions, the concentration of vemurafenib was 5 μM, the concentration of BGJ398 was 1 μM, and the concentration of GDC-0973 was 0.5 μM. The exposure time for all treatments was 24 hours. The cells were then processed and FGFR1, pAKT, pMEK, pERK, PARP, pBAD, BIM, and P-actin were probed for using Western blot.
# [2] = test system: HER2+ breast cancer cells; assay: Immunoblot of HER2+ breast cancer cells exposed to FGF2 with or without lapatinib; settings: FGF2 50 ng/mL for 10 minutes or 24 hours, with or without lapatinib 2 μM
# Procedure: FIG. 6A-B.| FGF2 reactivates key signalling pathways to promote resistance and stimulates sustained activation of downstream signaling. A, An immunoblot of cells exposed to FGF2 for 10 min compared to cells absent exposure. B, An immunoblot of cells exposed to FGF2 for 24 hrs compared to cells absent FGF2 exposure.
# Furthermore, it was determined that FGF2 reactivates key signalling pathways to promote resistance (FIG. 6). This was shown in a cell assay wherein HER2+ breast cancer cells were exposed to FGF2 (50 ng/mL) for 10 minutes in the presence or absence of lapatinib (2 μM) (FIG. 6A). Similarly, an assay was performed wherein HER2+ breast cancer cells were exposed to FGF2 (50 ng/mL) for 24 hours in the presence or absence of lapatinib (2 μM) (FIG. 6B).
# [3] = test system: HER2+ breast cancer cell lines; assay: FGF2 rescue (drug resistance) in HER2+ breast cancer cell lines; settings: of 10 HER2+ breast cancer cell lines
# Procedure: (§2) FIG. 5A-C.| Screen of 10 melanoma cell lines and 10 breast cancer lines was performed to determine the role of FGF signalling in drug resistance. […] C, Summary of FGF receptors, their subfamily, and their ligands.
# (§3) FGF signalling and resistance was studied in 10 HER2+ breast cancer cell lines and in 10 B-raf mutant melanoma cell lines (FIG. 5). 7 of the 10 HER2+ breast cancer cell lines were rescued by FGF2 (FIG. 5A). 8 of the 10 B-raf […] were rescued by FGF2 (FIG. 5B). Subsequent analysis determined that 50-70% of the melanoma lines with the V600E mutation were rescued by FGF2 (n=30).
# [4] = test system: B-raf mutant melanoma cell lines; assay: FGF2 rescue (drug resistance) in B-raf mutant melanoma cell lines
# Procedure: as §2, §3
# [5] = test system: HS 895.T normal skin fibroblast cells; assay: Single and dual drug treatment, cell growth of HS 895.T normal skin fibroblast cells; settings: growth observed on days 7, 14, 21, 28, 35
# Procedure: FIG. 13.|A drug screen was performed on Hs 895.T normal skin fibroblast cells. The cells were treated with DMSO (control), GDC-0973 (i.e., cobimetinib), GDC-0032 (PI3K-Alpha Inhibitor), BFJ-398 (pan FGFR inhibitor), GDC-0973 and GDC-0032, or GDC-0973 and BGJ-398.
# Experiments were performed on HS 895.T normal skin fibroblast cells to determine the effect of single and dual drug treatment on cell growth (FIG. 13). The cells were treated with DMSO (control), GDC-0973, GDC-0032, BGJ398, GDC-0973 and GDC-0032, or GDC-0973 and BGJ398. Cell growth was observed on days 7, 14, 21, 28, and 35, or until the cells had reached near 100% confluency. […] The cells treated with GDC-0973, GDC-0032, GDC-0973 and GDC-0032, and GDC-0973 and BGJ398 never reached confluency through day 35.
compound,measurement,setting,value
Cc1nc(-c2cn3c(n2)-c2ccc(-c4cnn(C(C)(C)C(N)=O)c4)cc2OCC3)n(C(C)C)n1 [GDC-0032],day by which cells reached confluency,CHL-1 melanoma cells,≤ 7 days
SCF: secreted growth factor promoting resistance to PLX4032,pathway activated in the presence of PLX4032,624 MEL cells,AKT
HGF: secreted growth factor promoting resistance to PLX4032,pathway activated in the presence of PLX4032,624 MEL cells,MAPK and AKT
same,rescue of tumor cells from B-raf and MEK antagonists,melanoma cell line,most broadly and potently
"O=C(c1ccc(F)c(F)c1Nc1ccc(I)cc1F)N1CC(O)([C@@H]2CCCCN2)C1 [GDC-0973, [3,4-Difluoro-2-(2-fluoro-4-iodo-phenylamino)-phenyl]-((S)-3-hydroxy-3-pi-peridin-2-yl-azetidin-1-yl)-methanone]",pERK levels (Western blot),[1],lower pERK levels
same,day by which cells reached confluency,CHL-1 melanoma cells,≤ 28 days
"FGF2: secreted growth factor, FGFR ligand, promotes resistance",activation of downstream signalling,[2],stimulates sustained activation of downstream signalling
same,number of cell lines rescued by FGF2,[3],7
same,number of cell lines rescued by FGF2,[4]; of 10 cell lines (FIG. 5B),8
same,melanoma lines with the V600E mutation rescued by FGF2,"[4]; subsequent analysis, n=30",50-70%
same,pathway activated in the presence of PLX4032,624 MEL cells,MAPK
same,rescue of tumor cells from B-raf and MEK antagonists,melanoma cell line,most broadly and potently
"CCN1CCN(c2ccc(Nc3cc(N(C)C(=O)Nc4c(Cl)c(OC)cc(OC)c4Cl)ncn3)cc2)CC1 [BGJ398, 3-(2,6-Dichloro-3,5-dimethoxy-phenyl)-1-{6-[4-(4-ethyl-piperazin-1-yl)-phenylamino]-pyrimidin-4-yl}-1-methyl-urea]",day by which cells reached confluency,CHL-1 melanoma cells,≤ 14 days
same,day by which cells reached confluency,[5],≤ 28 days
